Test results: PMC11230136 (Cell reports, 2024)

Experiments:
hippocampal neurons = experiment: Apoptotic nuclei; type: cell-based, rat; details: 1-h 100 μM NMDA, co-incubation with 5 μM inhibitor
[1] = test system: pilocarpine-induced SE mice; experiment: Pilocarpine-induced status epilepticus
[2] = molecular target: activated c-Abl immunoprecipitated from neurons (Rattus norvegicus, UniProt A0ABK0LKB8); experiment: In vitro phosphorylation kinase assay; type: biochemical; details: pre-incubation with 5 μM inhibitor (controls)
[3] = In vivo toxicity / tolerability observation; parameters: species or system mouse; details: diet 20, 67 or 200 ppm for 14 days
[4] = i.p. pre-treatment 12.5 mg/kg for 3 days, 60 min post pilocarpine
[5] = diet for 15 days (neurotinib 67 ppm, nilotinib 200 ppm), 60 min post pilocarpine

Chain of activated c-Abl immunoprecipitated from neurons (A0ABK0LKB8 1-1124): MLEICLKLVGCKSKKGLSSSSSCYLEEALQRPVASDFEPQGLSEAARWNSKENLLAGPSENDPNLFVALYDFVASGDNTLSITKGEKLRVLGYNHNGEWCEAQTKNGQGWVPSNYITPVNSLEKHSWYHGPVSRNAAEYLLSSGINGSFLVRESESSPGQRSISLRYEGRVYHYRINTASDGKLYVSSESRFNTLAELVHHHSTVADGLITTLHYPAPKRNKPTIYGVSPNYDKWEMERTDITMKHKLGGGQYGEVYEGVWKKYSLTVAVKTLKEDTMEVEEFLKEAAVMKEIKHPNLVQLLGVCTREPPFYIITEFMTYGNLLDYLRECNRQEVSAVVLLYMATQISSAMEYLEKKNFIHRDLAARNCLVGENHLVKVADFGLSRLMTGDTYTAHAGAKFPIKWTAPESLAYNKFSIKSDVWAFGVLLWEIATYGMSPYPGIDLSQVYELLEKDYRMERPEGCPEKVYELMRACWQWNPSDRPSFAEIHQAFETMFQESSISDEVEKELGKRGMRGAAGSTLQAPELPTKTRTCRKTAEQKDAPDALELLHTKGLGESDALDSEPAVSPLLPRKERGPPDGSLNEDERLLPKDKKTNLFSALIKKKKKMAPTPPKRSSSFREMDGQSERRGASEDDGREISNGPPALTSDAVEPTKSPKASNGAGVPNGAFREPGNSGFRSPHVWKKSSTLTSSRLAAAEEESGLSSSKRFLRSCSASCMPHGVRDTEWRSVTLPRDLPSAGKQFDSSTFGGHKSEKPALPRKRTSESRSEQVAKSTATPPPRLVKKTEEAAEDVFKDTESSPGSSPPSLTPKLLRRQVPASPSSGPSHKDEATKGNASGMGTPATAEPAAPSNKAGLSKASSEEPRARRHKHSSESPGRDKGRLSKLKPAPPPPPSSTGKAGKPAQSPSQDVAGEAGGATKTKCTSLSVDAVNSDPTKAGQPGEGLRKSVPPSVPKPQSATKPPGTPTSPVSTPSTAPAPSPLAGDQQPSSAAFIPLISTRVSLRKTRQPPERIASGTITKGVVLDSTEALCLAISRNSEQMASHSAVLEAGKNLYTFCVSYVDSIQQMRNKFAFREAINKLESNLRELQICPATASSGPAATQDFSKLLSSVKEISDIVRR

Cc1ccc(NC(=O)c2ccc(CN3CCN(C)CC3)cc2)cc1Nc1nccc(-c2cccnc2)n1 [imatinib]
apoptotic nuclei (Hoechst) (hippocampal neurons): apoptosis reduction
Mice with SE [1, 4]: 68%
Mice with single seizures but no SE [1, 4]: 29%
Total mortality [1, 4]: 36%
CRKII-GST phosphorylation [2]: inhibits CRKII-GST phosphorylation

Cc1cn(-c2cc(NC(=O)c3ccc(C)c(Nc4nccc(-c5cccnc5)n4)c3)cc(C(F)(F)F)c2)cn1 [nilotinib]
Mice with SE [1, 5]: 70%
Total mortality [1, 5]: none
Latency SE ([1]; diet for 15 days (neurotinib 67 ppm, nilotinib 200 ppm), mean ± SEM): 32.6 ± 6.1 min
acute toxicity or changes in behavior [3]: No signs of acute toxicity or changes in behavior
